Laboratory results: paper PMC12051030, “Identification of inhibitors of the Salmonella FraB deglycase, a drug target” (FEBS Open Bio, 2025)
Where two headings read alike, the source gives them in different places.

What was measured:
[1] = target: His6‐FraB (Salmonella FraB deglycase) (Salmonella enterica subsp. enterica serovar Typhimurium, UniProt Q8ZLD0); test: FraB-G6PD coupled assay, Michaelis–Menten analysis for K I and mode of inhibition; format: biochemical; settings: for change of IC50 values with increasing [S]/K m: 'this trend' = IC50 does not vary with [S]/K m, change evident only from 0.2 to 1.6× [S]/K m; for slope in plots of 1/IC50 vs. v o/V max: Fig. S12; for mode of inhibition: kinetic analyses (Lineweaver‐Burk, α′ vs [I], IC50 vs [S]/K m, 1/IC50 vs v o/V max)
His6‐FraB (Salmonella FraB deglycase), sequence (Q8ZLD0 entry or part of it): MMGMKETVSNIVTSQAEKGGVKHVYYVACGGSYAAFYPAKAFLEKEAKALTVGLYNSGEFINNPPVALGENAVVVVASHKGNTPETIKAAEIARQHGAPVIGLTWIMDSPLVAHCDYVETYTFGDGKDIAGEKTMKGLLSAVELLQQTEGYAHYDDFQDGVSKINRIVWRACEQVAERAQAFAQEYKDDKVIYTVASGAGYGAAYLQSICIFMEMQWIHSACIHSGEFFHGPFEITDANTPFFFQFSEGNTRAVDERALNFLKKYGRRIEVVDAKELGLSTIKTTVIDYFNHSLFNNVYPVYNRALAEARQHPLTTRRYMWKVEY
Protocol: To determine the K I of each inhibitor, 29 μL of master mix was added to two rows of a 384‐well Greiner plate, using a single‐channel pipette, and incubated at 20 °C for 20 min. A 12‐channel pipette was then used to transfer and mix 1 μL of varying [6‐P‐F‐Asp] to all 48 wells. The final reaction (30 μL) consisted of 25 mM HEPES pH 8.0 at 20 °C, 5 mM MgCl2, 0.1 mM EGTA, 0.5 mM NAD^+, 1 mU G6PD, 100 nM His6‐FraB, varying (6‐P‐F‐Asp) (between 8 and 12 concentrations), and varying [inhibitor] (between three and five concentrations) in 10% (v/v) DMSO. NADH fluorescence was monitored every 10 s for 10 min total on a SPARK® multi‐mode multiplate reader (Tecan), as described above, and plotted against time. Slopes of the linear range of each curve were converted to initial velocities, as described above, that were then plotted against [6‐P‐F‐Asp]. A hyperbolic curve was then fitted to the data to obtain the k cat and K m values according to the formula: v o = (V max × [S])/(K m + [S]).
To determine the correlation between the observed and expected initial velocities (Fig. S5A), these values were exported from Kaleidagraph, plotted against one another, and a curve was fit using the formula: y = mx + b. The differences between observed and expected initial velocities (residuals) were then depicted as box‐and‐whisker plots (Fig. S5B). Lineweaver‐Burk plots were generated by graphing 1/v o versus 1/[S] and curves were fit to the data with Kaleidagraph using the formula: 1/v o = (Km/V max).(1/[S]) + (1/V max). The k cat and K m parameters were then converted into α′ values by dividing the k cat of the control (no inhibitor) by either itself (α′= 1) or the k cat of test samples with variable [inhibitor]. Those α′ values were plotted against [inhibitor] and K I values were determined from the equation α = 1 + [I]/K I.
The initial velocities used to generate the Michaelis–Menten plots were also employed to obtain the IC50 vs [S]/K m plots. For a given [S], initial velocities were converted into relative activities and plotted versus [inhibitor]. […] The IC50 values determined from the IC50 vs [S]/K m plots were then used to plot 1/IC50 versus v o/V max. A curve was fit to the data using the formula: y = mx + b. The Y‐intercept of the 1/IC50 versus v o/V max plot is equal to 1/K IC, and the slope, for mixed inhibitors, is equal to 1/K IU – 1/K IC. […] Data analyses were performed as described above (see Tables S1–S7 for curve‐fit errors and goodness‐of‐fit values).

Salmonella tolC mutant = test: Growth assay, Salmonella tolC mutant in wild‐type or fra island mutant background; format: cell-based; settings: early finding; could not be replicated after multiple attempts with stocks from different suppliers (data not shown)
Description: We sought to examine the possibility that some of the hits in the biochemical HTS were not picked up in the cell‐based assays due to efficient efflux mechanisms in Salmonella. Because TolC is an outer membrane protein channel that is essential for the ability of seven of the 10 inner membrane drug‐efflux transporters to expel structurally diverse molecules, we generated a Salmonella tolC mutant and tested the 121 compounds that we purchased (Sabag‐Daigle, A. & Ahmer, B. M. M., unpublished results). The tests were conducted in parallel using the tolC mutant in a wild‐type or fra island mutant background; the latter lacks the entire fra locus and is incapable of catabolizing F‐Asn and forming 6‐P‐F‐Asp. Thus, any inhibitor specific for FraB (and which was being effluxed in the wild‐type) will inhibit the tolC mutant in a wild‐type but not the fra island mutant background. A caveat is that efflux of compounds may also be achieved via TolC‐independent drug‐efflux pumps.

[2] = Trial 1, 6-P-F-Asp 15.7 µM, S/Km 0.37381, unit from Fig. S11 axis, read-out: IC50 (IC50 versus [S]/Km plots)
[3] = Trial 1, 6-P-F-Asp 31.3 µM, S/Km 0.745238, unit from Fig. S11 axis, read-out: IC50 (IC50 versus [S]/Km plots)
[4] = Trial 1, 6-P-F-Asp 62.5 µM, S/Km 1.488095, unit from Fig. S11 axis, read-out: IC50 (IC50 versus [S]/Km plots)
[5] = Trial 1, 6-P-F-Asp 125 µM, S/Km 2.97619, unit from Fig. S11 axis, read-out: IC50 (IC50 versus [S]/Km plots)
[6] = Trial 1, 6-P-F-Asp 250 µM, S/Km 5.952381, unit from Fig. S11 axis, read-out: IC50 (IC50 versus [S]/Km plots)
[7] = Trial 1, 6-P-F-Asp 500 µM, S/Km 11.90476, unit from Fig. S11 axis, read-out: IC50 (IC50 versus [S]/Km plots)
[8] = Trial 1, 6-P-F-Asp 750 µM, S/Km 17.85714, unit from Fig. S11 axis, read-out: IC50 (IC50 versus [S]/Km plots)
[9] = Trial 1, 6-P-F-Asp 1000 µM, S/Km 23.80952, unit from Fig. S11 axis, read-out: IC50 (IC50 versus [S]/Km plots)
[10] = Trial 1, 6-P-F-Asp 2000 µM, S/Km 47.61905, unit from Fig. S11 axis, read-out: IC50 (IC50 versus [S]/Km plots)
[11] = Trial 1, 6-P-F-Asp 3000 µM, S/Km 71.42857, unit from Fig. S11 axis, read-out: IC50 (IC50 versus [S]/Km plots)
[12] = Trial 2, 6-P-F-Asp 7.38 µM, S/Km 0.175714, unit from Fig. S11 axis, read-out: IC50 (IC50 versus [S]/Km plots)
[13] = Trial 2, 6-P-F-Asp 15.7 µM, S/Km 0.37381, unit from Fig. S11 axis, read-out: IC50 (IC50 versus [S]/Km plots)
[14] = Trial 2, 6-P-F-Asp 31.3 µM, S/Km 0.745238, unit from Fig. S11 axis, read-out: IC50 (IC50 versus [S]/Km plots)
[15] = Trial 2, 6-P-F-Asp 62.5 µM, S/Km 1.488095, unit from Fig. S11 axis, read-out: IC50 (IC50 versus [S]/Km plots)
[16] = Trial 2, 6-P-F-Asp 125 µM, S/Km 2.97619, unit from Fig. S11 axis, read-out: IC50 (IC50 versus [S]/Km plots)
[17] = Trial 2, 6-P-F-Asp 250 µM, S/Km 5.952381, unit from Fig. S11 axis, read-out: IC50 (IC50 versus [S]/Km plots)
[18] = Trial 2, 6-P-F-Asp 500 µM, S/Km 11.90476, unit from Fig. S11 axis, read-out: IC50 (IC50 versus [S]/Km plots)
[19] = Trial 2, 6-P-F-Asp 750 µM, S/Km 17.85714, unit from Fig. S11 axis, read-out: IC50 (IC50 versus [S]/Km plots)
[20] = Trial 2, 6-P-F-Asp 1000 µM, S/Km 23.80952, unit from Fig. S11 axis, read-out: IC50 (IC50 versus [S]/Km plots)
[21] = Trial 2, 6-P-F-Asp 2000 µM, S/Km 47.61905, unit from Fig. S11 axis, read-out: IC50 (IC50 versus [S]/Km plots)
[22] = Trial 2, 6-P-F-Asp 3000 µM, S/Km 71.42857, unit from Fig. S11 axis, read-out: IC50 (IC50 versus [S]/Km plots)
[23] = from Michaelis–Menten analysis of FraB at different inhibitor concentrations, average and standard error from two measurements, read-out: K I

SMILES	change of IC50 values with increasing [S]/K m [1]	slope in plots of 1/IC50 vs. v o/V max [1]	IC50 [1, 2] [µM]	IC50 [1, 3] [µM]	IC50 [1, 4] [µM]	IC50 [1, 5] [µM]	IC50 [1, 6] [µM]	IC50 [1, 7] [µM]	IC50 [1, 8] [µM]	IC50 [1, 9] [µM]	IC50 [1, 10] [µM]	IC50 [1, 11] [µM]	IC50 [1, 12] [µM]	IC50 [1, 13] [µM]	IC50 [1, 14] [µM]	IC50 [1, 15] [µM]	IC50 [1, 16] [µM]	IC50 [1, 17] [µM]	IC50 [1, 18] [µM]	IC50 [1, 19] [µM]	also measured
CC(C)Cc1cc(-c2nn3c(-c4ccccc4Cl)nnc3s2)n[nH]1 [3470:A09, 3‐(2‐chlorophenyl)‐6‐[5‐(2‐methylpropyl)‐1H‐pyrazol‐3‐yl]‐[1,2,4]triazolo[3,4‐b][1,3,4]thiadiazole]	modest decrease	weakly positive	29.3	18.8	20.5	20.2	20.6	19.4	19.5	21.3	22.7	23.2	19	13.6	12.4	12.6	11.4	11.6	11	10.9	IC50 [1, 20]: 11.3 µM; IC50 [1, 21]: 11.1 µM; IC50 [1, 22]: 15.3 µM; Ki [1, 23]: 10.5 ± 3.5 µM; Ki ([1]; independent trial shown in Fig. S11 panels A-L, read-out: KI from α′ vs [I] plot): 7 µM; mode of inhibition [1]: mixed‐type uncompetitive; IC50 ([1]; single trial shown in Fig. 5, read-out: IC50, mean and standard deviation of all IC50 values in IC50 vs [S]/Km plot): 13 ± 3 µM; Ki ([1]; single trial shown in Fig. 5, read-out: KI from α′ vs [I] plot): 14 µM; inhibition of growth of Salmonella tolC, fra‐dependent (Salmonella tolC mutant): initially shown to inhibit the growth of Salmonella tolC in a fra‐dependent manner
c1ccc(-c2nnc3sc(C4COc5ccccc5O4)nn23)nc1 (stereo not drawn) [3469:F02, 6‐(2,3‐dihydro‐1,4‐benzodioxin‐3‐yl)‐3‐pyridin‐2‐yl‐[1,2,4]triazolo[3,4‐b][1,3,4]thiadiazole]	slight increase	weakly negative	27.6	33.5	27.9	34	31.8	32.7	33.7	33.9	36.1	52.6	41.2	41.3	51.7	51.3	49.2	47.8	46.1	45.4	IC50 ([1]; Trial 1, 6-P-F-Asp 7.38 µM, S/Km 0.175714, unit from Fig. S11 axis, read-out: IC50 (IC50 versus [S]/Km plots)): 18.9 µM; IC50 [1, 20]: 48.9 µM; IC50 [1, 21]: 59.2 µM; IC50 [1, 22]: 67.2 µM; K IU/K IC ratio ([1]; average (±SE), from 1/IC50 versus v o/V max plots): 1.35 ± 0.25; Ki [1, 23]: 28.5 ± 3.5 µM; mode of inhibition [1]: mixed‐type competitive; IC50 ([1]; trial shown in Fig. S11 panels M-X, read-out: IC50, mean and standard deviation of all IC50 values in IC50 vs [S]/Km plot): 50 ± 8 µM; Ki ([1]; trial shown in Fig. S11 panels M-X, read-out: KI from α′ vs [I] plot): 25 µM; Ki ([1]; trial shown in Fig. S11 panels Y-AJ, read-out: KI from α′ vs [I] plot): 32 µM; inhibition of growth of Salmonella tolC, fra‐dependent (Salmonella tolC mutant): initially shown to inhibit the growth of Salmonella tolC in a fra‐dependent manner
